Measurements published in patent US20100048621A1, “MEDICAMENT FOR TREATING CHRONIC OBSTRUCTIVE PULMONARY DISEASE” (priority 2007, published 2010).

Test system: elastase-treated model mouse of COPD
Experiment: Combination effect of cilostazol/probucol for pulmonary disorder in mouse treated with human neutrophil elastase (COPD model)
Type: in vivo, C57BL/6J mouse
Settings: free feeding from 7 days before intratracheal human neutrophil elastase 20 U/50 μL, lungs 3 weeks after elastase, mean±standard deviation, control 178.8±22.4, normal 51.4±1.9, P<0.01 vs control
Source text: Combination effect of cilostazol/probucol for pulmonary disorder in C57BL/6J mouse treated with elastase produced from human neutrophil.
• Animals: female C57BL/6J mice (5 weeks old) which were purchased from Charles River Laboratories Japan, Inc. were used.
Group composition: the following 5 groups. • Non-treated (normal control) group: n=4 • Elastase-treated group (control group): n=6 • Elastase-treated, 0.3% cilostazol-administrated group: n=6 • Elastase-treated, 0.5% probucol-administrated group: n=6 • Elastase-treated, (0.3% cilostazol+0.5% probucol)−administrated group: n=6
Female C57BL/6J mice (5 weeks old) were divided into the given groups by a stratified randomization (using an SAS software, R 8.1) based on each body weight on the starting day of administration. Shortly after the group division, a MF feed was given to the non-treated group and the control group, and a mixed feed in which cilostazol or/and probucol was added in the given ratio was given to the medicament(s)-treated groups, in free feeding. […]
The following groups were statistically analyzed in order to study about the effect of the single-administration and combination-administration of the medicament(s). • 1) Elastase-treated group (control group) • 2) 0.3% Cilostazol-administrated group • 3) 0.5% Probucol-administrated group • 4) (0.3% Cilostazol+0.5% probucol)−administrated group […]

| Structure (SMILES) | mean linear intercept of pulmonary alveolus (0.3% cilostazol in mixed feed) | mean linear intercept of pulmonary alveolus (0.5% probucol in mixed feed) |
| --- | --- | --- |
| O=C1CCc2cc(OCCCCc3nnnn3C3CCCCC3)ccc2N1 [cilostazol, 6-[4-(1-cyclohexyl-1H-tetrazol-5-yl)butoxy]-3,4-dihydrocarbostyril] | 116.9±14.3 μm | – |
| CC(C)(Sc1cc(C(C)(C)C)c(O)c(C(C)(C)C)c1)Sc1cc(C(C)(C)C)c(O)c(C(C)(C)C)c1 [probucol, 4,4′-isopropylidenedithiobis[2,6-di-tert-butylphenol]] | – | 86.2±4.8 μm |
